According to paper PMC10119423, “From PERK to RIPK1: Design, synthesis and evaluation of novel potent and selective necroptosis inhibitors” (Frontiers in Chemistry, 2023):
Where two headings read alike, the source gives them in different places.

Tests used:
RIPK1 = biological target: T1, RIPK1 (Mus musculus, UniProt Q60855); assay: RIPK1 autophosphorylation (pS166) by Western blot in MEFs stimulated with hTNF + TAK1i + zVAD.fmk; format: cell-based; settings: immortalised MEFs, 30 min pretreatment with zVAD.fmk 50 μM, TAK1i 1 μM and compound, hTNF 20 ng/ml for 2.5 h, read-out: RIPK1 inhibition (IC50 estimated from a Western blot)
T1 construct: endogenous in cells; host or cells: immortalized mouse embryonic fibroblasts (MEFs, C57Bl6/J)
T1 sequence (Q60855 1-656): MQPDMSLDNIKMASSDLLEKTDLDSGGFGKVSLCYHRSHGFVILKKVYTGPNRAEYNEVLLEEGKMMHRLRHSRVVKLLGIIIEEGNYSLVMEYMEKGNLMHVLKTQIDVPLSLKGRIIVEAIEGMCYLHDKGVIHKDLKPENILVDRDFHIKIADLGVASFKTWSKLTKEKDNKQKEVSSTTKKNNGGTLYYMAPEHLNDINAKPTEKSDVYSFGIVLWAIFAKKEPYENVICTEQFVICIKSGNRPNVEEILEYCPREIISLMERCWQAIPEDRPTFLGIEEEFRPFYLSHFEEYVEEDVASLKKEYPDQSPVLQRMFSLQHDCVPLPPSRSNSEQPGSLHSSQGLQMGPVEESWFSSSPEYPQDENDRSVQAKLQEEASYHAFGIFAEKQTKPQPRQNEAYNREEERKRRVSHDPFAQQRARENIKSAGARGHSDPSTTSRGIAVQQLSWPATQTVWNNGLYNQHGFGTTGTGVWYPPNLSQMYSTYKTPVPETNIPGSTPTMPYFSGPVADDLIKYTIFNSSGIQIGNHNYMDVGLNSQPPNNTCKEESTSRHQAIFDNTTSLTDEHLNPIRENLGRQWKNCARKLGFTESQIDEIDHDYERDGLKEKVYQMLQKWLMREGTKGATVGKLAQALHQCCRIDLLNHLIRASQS
Method: MEFs were seeded in 6-well plates at a density of 300.000 cells/well in 2 mL. The next day, the cells were suspended in 1 mL of medium and pre-treated for 30 min with the indicated compounds at 1/5 dilutions series for PERK ranging from 5 to 0.04 µM and 1 μg/mL of Tm followed by 4 h treatment with 20 ng/mL of hTNF. For RIPK1, the cells were pre-treated at 1/10 dilutions series ranging from 10 to 0.01 nM, 50 µM zVAD.fmk and 1 µM TAKi before stimulation with 20 ng/mL of hTNF for 2.5 h. Then, the cells were washed two times with 1 mL of ice-cold PBS before lysis in 0.2 mL of Laemmli buffer 1x (10% (w/v) SDS, 50% glycerol, 0.5% bromophenol blue, 250 mM Tris–HCl pH 6.8) and 250 mM of dithiothreitol (DTT). The cell lysate was then collected and boiled at 95 °C for 10min and stored at −20°C. Proteins expression was later monitored by immunoblotting.
Activation of PERK was induced by stimulation of the cells with Tunicamycin, as previsouly reported ([Bull and Thiede, 2012]). More precisely, the immortalised MEFs were pre-incubated for 30 min with the analogues 18–34 at different concentrations (0.04, 0.2, 1, and 5 µM) prior to 4 h stimulation with Tunicamycin (1 μg/mL). […] Their activities were evaluated by comparing the intensity of the signal to unstimulated MEFs (considered as zero phosphorylation) and Tunicamycin stimulated cells (considered as 100% PERK phosphorylation). The 12 compounds (18–20, 22–29 and 34) that had lost their inhibitory capacity on PERK were then tested for their ability to inhibit RIPK1 as shown in Figures 6A–H. Activation and autophosphorylation of RIPK1 was induced by stimulating the cells with TNF in the presence of TAK1 inhibitor and of the pan-caspases inhibitor zVAD.fmk, a well established necroptotic trigger ([Vanlangenakker et al., 2011]). The MEFs were pre-incubated for 30 min with the different compounds (0.01 nM–1000 nM) and then stimulated with human TNF (20 ng/mL) for 2.5 h. Similar to the PERK assessment, IC50 values for RIPK1 inhibition were estimated as a range of concentrations, and are reported in Table 1. These experiments provide an estimation of the specificity of our analogues against PERK and RIPK1 in comparison to the benchmark GSK’157 already reported as a potent PERK and RIPK1 inhibitor.

immortalized MEFs = assay: RIPK1 kinase-dependent necroptosis (hTNF + zVAD.fmk) in MEFs, Sytox Green; format: cell-based, mouse; settings: Mus musculus, 24 h;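 note: cell death taken as background-corrected Sytox Green fluorescence relative to the maximal signal of cells fully permeabilized with 0.1% Triton X-100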
Method: In brief, the cells were seeded in duplicate at 10,000 cells per well in a 96-well adherent plate and incubated overnight at 37°C with 5% CO2. […] All the compound stock solutions were prepared in DMSO at 200 µM concentration. After stimulating the cells with human TNF at 20 ng/mL the plate was transferred to the incubator. […] The cell death was calculated by subtracting the background fluorescence from the induced Sytox Green fluorescence and by dividing the obtained result by the maximal fluorescence (minus the background fluorescence) obtained by permeabilization of the cells by using Triton X-100 at a final concentration of 0.1%. Curves were plotted in GraphPad 9 for the IC50 calculation.
Consequently, the compounds were evaluated for their potential protection of RIPK1-mediated necroptosis following human TNF stimulation.

Cn1cc(-c2ccc3c(c2F)CCN3C(=O)Cc2ccc(C(F)(F)F)cn2)c2c(N)ncnc21 [Compound 22]
IC50 (RIPK1): 1 to 10 nM
IC50 (immortalized MEFs; immortalized MEFs, zVAD-fmk 50 μM + hTNF 20 ng/ml, Sytox Green at 24 h, Table 1 series, read-out: IC50 necroptosis): 2.9 nM
IC50 (immortalized MEFs; MEFs, hTNF + zVAD.fmk (20 ng/mL), Table 2, read-out: Necroptosis hTNF + zVAD.fmk MEFs IC50): 1.06 nM
